# “And” between values parts separate entries of the source, which are not always exact repeats. Identical values can stand only once.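 Tested at 5 concentrations; 48 h exposure; 96-well plates; endpoints linearly interpolated, else capped at highest concentration. Definition used: TGI = concentration required for complete inhibition of growth.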
# Key:
# Assay in all cases: NCI tumour cell line growth inhibition, 48 h
# EKVX NSCLC = test system: EKVX NSCLC
# KM12 colon = test system: KM12 colon
# RPMI-8226 leukemia = test system: RPMI-8226 leukemia
# SN12C renal = test system: SN12C renal
# TK-10 renal = test system: TK-10 renal
# U251 CNS = test system: U251 CNS
# DLD-1 colon = test system: DLD-1 colon
# DMS 114 small cell lung = test system: DMS 114 small cell lung
# DMS 273 small cell lung = test system: DMS 273 small cell lung
# HOP-18 NSCLC = test system: HOP-18 NSCLC
# KM20L2 colon = test system: KM20L2 colon
# LXFL 529 NSCLC = test system: LXFL 529 NSCLC
# M19-MEL melanoma = test system: M19-MEL melanoma
# SNB-78 CNS = test system: SNB-78 CNS
Compound,TGI (EKVX NSCLC),TGI (KM12 colon),TGI (RPMI-8226 leukemia),TGI (SN12C renal),TGI (TK-10 renal),TGI (U251 CNS),TGI (DLD-1 colon) [µM],TGI (DMS 114 small cell lung) [µM],TGI (DMS 273 small cell lung) [µM],TGI (HOP-18 NSCLC) [µM],TGI (KM20L2 colon) [µM],TGI (LXFL 529 NSCLC) [µM],TGI (M19-MEL melanoma) [µM],TGI (SNB-78 CNS) [µM]
NC(N)=NS(=O)(=O)c1ccc(NNC(=O)c2cccc3c(=O)c4ccccc4[nH]c23)cc1,62.2 µM,57 µM,> 100 µM,> 100 µM,94 µM,> 100 µM,–,–,–,–,–,–,–,–
Cc1cc(S(=O)(=O)Nc2n[nH]c(Nc3ccc4ccccc4c3)n2)c(S)cc1Cl,> 100 µM,95 µM,> 100 µM,> 100 µM,> 100 µM,> 100 µM,–,–,–,–,–,–,–,–
COc1cc(COC(=O)N2CC=CC2C(=O)O)c([N+](=O)[O-])cc1OC (stereo not given),> 100 µM,> 100 µM,> 100 µM,> 100 µM,> 100 µM,> 100 µM,–,–,–,–,–,–,–,–
Cc1cccc(/C=N\NC(=S)N2CCCCC2)n1,> 100 µM,> 100 µM,0.502 µM,9.38 µM,–,> 100 µM,–,–,–,–,–,–,–,–
CCN(CC)c1ccc2cc(C(=O)NCc3ccccc3)c(=N)oc2c1,> 100 µM,> 100 µM,> 59.7 µM,> 100 µM,> 100 µM,> 100 µM,–,–,–,–,–,–,–,–
COc1cc(C2SCC(=O)N2c2ccc(NC(C)=O)cc2)cc(OC)c1OC (stereo not given),> 100 µM,> 100 µM,> 100 µM,> 100 µM,> 100 µM,> 100 µM,–,–,–,–,–,–,–,–
CCOC(=O)[C@@H]1ON2O[C@H](OC3CCCCC3c3ccccc3)C[C@H]3OC(=O)[C@@H]1C32 (stereo not given in full),> 100 µM,> 100 µM,> 100 µM,> 100 µM,> 100 µM,> 100 µM,–,–,–,–,–,–,–,–
CC(=O)Oc1c(OC(C)C)c(C)c(O[Si](C(C)C)(C(C)C)C(C)C)c2[nH]c3ccccc3c12,> 100 µM,> 100 µM,> 100 µM,> 100 µM,> 100 µM,> 100 µM,–,–,–,–,–,–,–,–
NC(=O)C(=CNC(=S)Nc1ccc(S(=O)(=O)Nc2ccccn2)cc1)C(N)=O,> 100 µM,> 100 µM,> 100 µM,> 100 µM,> 100 µM,> 100 µM,–,–,–,–,–,–,–,–
CCN(CC)C(=S)SC1C(=O)NC(=O)NC1=O,> 100 µM,> 100 µM,> 100 µM,> 100 µM,> 100 µM,> 100 µM,–,–,–,–,–,–,–,–
CCc1[nH]c(=O)c2oc3cc4ccccc4cc3c2c1C(=O)O,> 10 µM,> 10 µM,–,> 10 µM,> 10 µM,–,–,–,–,–,–,–,–,–
CN1N=C(c2ccccc2)C(C(c2ccccc2[N+](=O)[O-])C2C(=O)N(C)N=C2c2ccccc2)C1=O (stereo not given),> 100 µM,> 100 µM,> 100 µM,> 100 µM,> 100 µM,> 100 µM,–,–,–,–,–,–,–,–
CC(=O)OCC1OC(n2c(N)c(C#N)c(C)c(C#N)c2=S)C(OC(C)=O)C(OC(C)=O)C1OC(C)=O (stereo not given),> 100 µM,> 100 µM,> 100 µM,> 100 µM,> 100 µM,> 100 µM,–,–,–,–,–,–,–,–
CCOC(=O)c1nc2ccccc2nc1Oc1ccc(C#N)cc1,> 100 µM,> 100 µM,> 100 µM,> 100 µM,> 100 µM,> 100 µM,–,–,–,–,–,–,–,–
CN=C(N)N=Nc1c(O)[nH]c2ccccc12,> 100 µM,> 100 µM,> 100 µM,> 100 µM,> 100 µM,> 100 µM,–,–,–,–,–,–,–,–
CCOC(=O)c1cnc2c(ccc3[nH]cccc32)c1=O,> 100 µM,> 100 µM,–,> 100 µM,> 100 µM,> 100 µM,> 100,> 100,> 100,> 100,> 100,> 100,> 100,> 100
c1ccc(-c2c3c(nc4c2CC[C@H]4NC2=NCCN2)[C@@H](NC2=NCCN2)CC3)cc1,> 100 µM,> 100 µM,–,> 100 µM,> 100 µM,23.6 µM,–,–,–,–,–,–,–,–
Oc1cnc2c(O)cccc2c1,57.2 µM,> 100 µM,> 100 µM,> 100 µM,> 100 µM,> 100 µM,–,–,–,–,–,–,–,–
O=C1NC(=S)NC(=O)C1=Cc1ccc(-c2ccccc2)cc1,> 100 µM,> 100 µM,> 100 µM,> 100 µM,> 100 µM,> 100 µM,–,–,–,–,–,–,–,–
CC12C(=C(C#N)C(=N)N1c1ccc(Cl)c(Cl)c1)C=C(O)CC2SCCS(=O)(=O)O (stereo not given),> 100 µM,> 100 µM,> 100 µM,> 100 µM,> 100 µM,> 100 µM,> 100,> 100,> 100,–,> 100,> 100,> 100,> 100
CC(C)CC1c2[nH]c3ccccc3c2C[C@H]2C(=O)NC(CCCCNC(=O)OC(C)(C)C)C(=O)N12 (stereo not given in full),> 100 µM,> 100 µM,58.5 µM,77.4 µM,> 100 µM,> 100 µM,–,–,–,–,–,–,–,–
O=C(Cn1c(=O)oc2ccc(C(=O)c3ccc(F)cc3)cc21)c1ccccc1,–,> 100 µM,> 100 µM,> 100 µM,> 100 µM,> 100 µM,–,–,–,–,–,–,–,–
CCN(CC)c1ccc(C2Nc3ccc4ccccc4c3C3=C2C(=O)CCC3)cc1 (stereo not given),> 100 µM,> 100 µM,> 100 µM,> 100 µM,–,33 µM,–,–,–,–,–,–,–,–
C[C@@]1(Cc2ccccc2)C(=O)N2[C@@H](CO)C(c3ccccc3)O[C@]2(C)c2ccccc21 (stereo not given in full),> 100 µM,> 100 µM,> 100 µM,–,> 100 µM,> 100 µM,> 100,> 100,> 100,–,> 100,> 100,> 100,> 100
CC1OC(OC2C(OC(=O)[C@]34CCC(C)(C)C[C@H]3C3=CC[C@@H]5[C@@]6(C)CC[C@H](OC7OC(CO)C(O)C(O)C7OC7OC(CO)C(O)C(O)C7O)C(C)(C)[C@@H]6CC[C@@]5(C)[C@]3(C)CC4)OCC(O)C2O)C(O)C(O)C1OC1OCC(O)C(OC2OCC(O)C(O)C2O)C1O (stereo not given in full),8.6 µM and 7.32 µM,11.8 µM and 12.5 µM,16.1 µM and 17.4 µM,4.82 µM and 4.43 µM,21.1 µM and 21.8 µM,22.9 µM and 19.7 µM,–,–,–,–,–,–,–,–
CSc1nn(C)cc2nc(C)nc1-2,> 100 µM,> 100 µM,> 100 µM,> 100 µM,> 100 µM,> 100 µM,–,–,–,–,–,–,–,–
